A word on the IC50: it is the concentration needed to halve the response being measured. High values mean a need for much substance, low ones inhibition by little substance.

The target of this assay is T1, wild-type human melanocortin 4 receptor (WT-hMC4R) (Homo sapiens, UniProt P32245).
T1 construct: expressed in transfected cells; cDNA from UMR cDNA resource center
T1 sequence (P32245 whole entry): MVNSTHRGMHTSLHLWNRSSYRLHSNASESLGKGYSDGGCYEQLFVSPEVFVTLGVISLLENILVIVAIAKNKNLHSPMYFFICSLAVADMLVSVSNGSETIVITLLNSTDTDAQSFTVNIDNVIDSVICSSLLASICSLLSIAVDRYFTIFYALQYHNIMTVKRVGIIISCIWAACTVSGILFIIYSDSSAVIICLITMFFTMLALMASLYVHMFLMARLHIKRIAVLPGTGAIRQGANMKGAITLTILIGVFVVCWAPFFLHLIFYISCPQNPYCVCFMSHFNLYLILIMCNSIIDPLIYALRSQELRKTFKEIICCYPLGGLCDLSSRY
Description: Cyclic AMP assay (HTRF), antagonist competition against NDP-α-MSH. Conditions: HEK293T cells expressing double-tagged WT-hMC4R; cAMP accumulation; 1 hour compound then 4 nM NDP-α-MSH 30 min. It is filed as cell-based. The protocol: Intracellular cyclic 3′-5′ adenosine monophosphate (cAMP) accumulation was measured using a competitive immunoassay based on HTRF (Homogeneous Time-Resolved Fluorescence) technology (cAMP dynamic-2, Cis-Bio).
HEK293T stable cell line expressing double-tagged WT-hMC4R construct were collected and washed in cAMP buffer (1XD-PBS pH 7.4, 0.1% glucose). 40,000 cells/well were then dispensed in 96-well plates in cAMP buffer [1XD-PBS, 1% BSA, 0.1% Glucose, 0.75 mM 3-isobutyl-1methyl-xanthine (IBMX, Sigma)] and incubated either for antagonist competition assay: 1 hour at 37° C. with various concentrations of compound [0.01 nM-10 μM] followed by 30 min incubation at 37° C. with 4 nM of NDP-α-MSH (Sigma) or for agonist assay: 1 hour at 37° C. with various concentrations of compound [0.01 nM-10 μM]. 10,000 cells were transferred in 384-well plates, lysed and incubated with cAMP labeled with the dye d2 and anti-cAMP M-Antibody labeled with Cryptate following the manufacturer's protocol.
Reading of HTRF signal was performed on Artemis TR-FRET plate reader (Cosmo Bio).
All curve fitting was conducted using non-linear regression analyses from PRISM (version 4.0c, GraphPad Inc.) and the determination of Rmax and EC50 or IC50 parameters were obtained from sigmoidal dose-response phase (variable slope) equation.
A cDNA encoding a wild-type human MC4R with a 3 tandem copies of Hemaglutinine (HA) epitote sequence from UMR cDNA resource center was modified using known techniques in the art (e.g., PCR, cloning) to fused in frame at the C-terminal a venus-Yellow Fluorescent Protein (YFP) cDNA.
The resultant cDNA was then subcloned in eukaryotic expression vector, e.g. pcDNA 3.1(+) (Invitrogen).
The double tagged WT-hMC4R was transfected in HEK293T cells with lipofectamine (Invitrogen) following the manufacturer's instructions and permanently transfected clonal cell lines were selected by resistance to the neomycin analog G418.
HEK293T stable cell line expressing wild-type human melanocortin 4 receptor (WT-hMC4R) containing an N-terminal 3xHA epitope tag and an intracellular C-terminal venus-yellow fluorescent protein (v-YFP) were maintained at 37° C. in humidified air containing 5% CO2 in Dulbecoo's modified Eagle's medium (DMEM) supplemented with 10% fetal bovine serum (FBS), 100 U/ml penicillin/streptomycin (DMEM complete/10% FBS). Cells were generally at 70%-80% confluence on the day of assay.
Background: TR-FRET usually uses a lanthanide donor and a delayed reading to cut background.
On to `CC(C)CCN(CCC(C)C)C(=O)c1ccn2nc(C(=O)N3CCOCC3)c(CCCN3CCCCC3)c2c1` [Example 141, N,N-diisopentyl-2-(morpholine-4-carbonyl)-3-(3-(piperidin-1-yl)propyl)pyrazolo[1,5-a]pyridine-5-carboxamide], for which the IC50 was 5 to 15 µM.

As for `COc1ccc(Cl)cc1-c1nn2ccc(C(=O)N(CCC(C)C)CCC(C)C)cc2c1/C=C/CN1CCCCC1` [Example 113], the IC50 lay within 1 to 5 µM.

As for `COC(=O)c1cccc(-c2nn3ccc(C(=O)N(CCC(C)C)CCC(C)C)cc3c2/C=C/CN2CCCCC2)c1` [Example 30], the IC50 was < 0.5 µM.

As to `CC(C)CCN(CCC(C)C)C(=O)c1ccn2nc(-c3ccc(Br)cc3)c(CCCN3CCCCC3)c2c1` [Example 45], the IC50 was < 0.5 µM.

`CCCCN(C/C=C/c1c(-c2ccc(OC)cc2)nn2ccc(C(=O)N(CCCC)CCCC)cc12)CCCC` [Example 110]: the concentration for half-maximal inhibition (IC50) is 5 to 15 µM.

`CCCCN(CCCC)C(=O)c1ccn2nc(-c3ccc(C)cc3)c(/C=C/CN3CCCCC3)c2c1` [Example 63]: the half-inhibitory concentration (IC50) is 0.5 to 1 µM.

Compound `CNCCCc1c(-c2ccc(OC)cc2)nn2ccc(C(=O)N(CCC(C)C)CCC(C)C)cc12` [Example 157] came in with a half-maximal inhibitory concentration (IC50) of 5 to 15 µM.

The compound `CCOc1ccc(-c2nn3ccc(C(=O)N(CCC(C)C)CCC(C)C)cc3c2/C=C/CN2CCC(F)(F)CC2)cc1` [Example 79] yielded an IC50 of 5 to 15 µM.

`CCOc1ccc(-c2nn3ccc(C(=O)N(CCC(C)C)CCC(C)C)cc3c2/C=C/CN2CCCCC2)cc1` [Example 20] gave a concentration for half-maximal inhibition (IC50) of 1 to 5 µM.

Compound `CCCCN(CCCC)C(=O)c1ccn2nc(-c3ccc(F)cc3)c(CCCN3CCCCC3)c2c1` [Example 48] gave an IC50 of 0.5 to 1 µM.

As to `COc1ccc(-c2nn3ccc(C(=O)N(CCC(C)C)CCC(C)C)cc3c2/C=C/CN2CCCCC2)cc1OC` [Example 14], the IC50 is < 0.5 µM.

Take `CC(C)CCN(CCC(C)C)C(=O)c1ccn2nc(-c3ccc(Cl)cc3)c(CCCN3CCCCC3)c2c1` [Example 11, 2-(4-Chlorophenyl)-N,N-diisopentyl-3-(3-(piperidin-1-yl)propyl)pyrazolo[1,5-a]pyridine-5-carboxamide]: the half-maximal inhibitory concentration (IC50) lay in the range of 1 to 5 µM.

The compound `COc1ccc(-c2nn3ccc(C(=O)N(CCC(C)C)CCC(C)C)cc3c2/C=C/CN2CCCC2)cc1` [Example 23] had an IC50 of 1 to 5 µM.

As to `COc1ccc(Cl)cc1-c1nn2ccc(C(=O)N(CCC(C)C)CCC(C)C)cc2c1-c1ccc(CN2CCCCC2)cc1` [Example 137], the IC50 is 1 to 5 µM.

Consider `COc1ccc(Cl)cc1-c1nn2ccc(C(=O)N(CCC(C)C)CCC(C)C)cc2c1CCCN1CCCC1` [Example 116], for which the IC50 fell in the range of 1 to 5 µM.

In turn, `CCCCN(CCCC)C(=O)c1ccn2nc(-c3ccc(OC)cc3)c(CCCN3CCCCC3)c2c1` [Example 1, N,N-Dibutyl-2-(4-methoxyphenyl)-3-(3-(piperidin-1-yl)propyl)pyrazolo[1,5-a]pyridine-5-carboxamide] had an IC50 of 1 to 5 µM.

`COc1cccc(-c2nn3ccc(C(=O)N(CCC(C)C)CCC(C)C)cc3c2/C=C/CN2CCCCC2)c1` [Example 13] displayed a 50% inhibitory concentration (IC50) of 0.5 to 1 µM.

For the compound `COc1ccc(-c2nn3ccc(C(=O)N(CCC(C)C)CCC(C)C)cc3c2CCCN2CCCCCC2)cc1` [Example 111], the IC50 lay in the range of 1 to 5 µM.

For the compound `CCCCCN(CCCCC)C(=O)c1ccn2nc(-c3ccc(C)cc3)c(/C=C/CN3CCCCC3)c2c1` [Example 65], the half-maximal inhibitory concentration (IC50) lay in the range of 1 to 5 µM.

The compound `CCCCN(CCCC)CCCc1c(-c2ccc(OC)cc2)nn2ccc(C(=O)N(CCCC)CCCC)cc12` [Example 112] came in with a half-maximal inhibitory concentration (IC50) of 1 to 5 µM.

As to `COc1cc(OC)cc(-c2nn3ccc(C(=O)N(CCC(C)C)CCC(C)C)cc3c2CCCN2CCCCC2)c1` [Example 86], the IC50 is < 0.5 µM.

Take `COc1ccc(-c2nn3ccc(C(=O)N(CCC(C)C)CCC(C)C)cc3c2CCCN2CCC2)cc1` [Example 156]: the half-maximal inhibitory concentration (IC50) was in the range of 1 to 5 µM.

Take `CCOc1ccc(-c2nn3ccc(C(=O)N(CCC(C)C)CCC(C)C)cc3c2CCCN2CCCCC2)cc1` [Example 22]: the IC50 is 0.5 to 1 µM.

Turning to `CC(C)CCN(CCC(C)C)C(=O)c1ccn2nc(C(C)(C)C)c(CCCN3CCCCC3)c2c1` [Example 119], the IC50 was < 0.5 µM.

Source of the values: patent publication US9018395B2, “Pyrazolopyridine and pyrazolopyrimidine derivatives as melanocortin-4 receptor modulators” (Université de Montréal, priority 2011, dated 2015).
